The target of test [1] is T1, Prostaglandin G/H synthase 2 (Homo sapiens, UniProt P35354).
T1 sequence (P35354 whole entry): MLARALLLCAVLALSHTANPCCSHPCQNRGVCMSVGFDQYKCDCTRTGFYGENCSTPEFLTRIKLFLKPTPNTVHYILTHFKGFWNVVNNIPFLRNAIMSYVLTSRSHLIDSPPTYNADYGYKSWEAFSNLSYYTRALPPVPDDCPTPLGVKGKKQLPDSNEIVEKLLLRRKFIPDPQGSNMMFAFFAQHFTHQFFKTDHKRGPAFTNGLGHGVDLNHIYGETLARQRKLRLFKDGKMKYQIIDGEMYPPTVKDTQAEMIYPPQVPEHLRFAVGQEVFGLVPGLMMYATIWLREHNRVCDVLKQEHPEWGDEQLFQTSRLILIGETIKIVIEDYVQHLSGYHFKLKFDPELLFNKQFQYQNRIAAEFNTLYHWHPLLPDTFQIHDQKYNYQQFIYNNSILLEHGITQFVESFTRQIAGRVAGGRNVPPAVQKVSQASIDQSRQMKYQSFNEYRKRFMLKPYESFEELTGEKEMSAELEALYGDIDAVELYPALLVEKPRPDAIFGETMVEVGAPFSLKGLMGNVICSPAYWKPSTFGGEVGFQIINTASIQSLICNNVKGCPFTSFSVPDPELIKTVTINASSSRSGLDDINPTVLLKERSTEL
Description: Inhibition of COX2 by enzyme immunoassay.

For test [2], the target named is Prostaglandin G/H synthase 1 (Homo sapiens, UniProt P23219). The experiment in a line: Inhibition of COX1 by enzyme immunoassay.
Chain of Prostaglandin G/H synthase 1 (P23219 whole entry): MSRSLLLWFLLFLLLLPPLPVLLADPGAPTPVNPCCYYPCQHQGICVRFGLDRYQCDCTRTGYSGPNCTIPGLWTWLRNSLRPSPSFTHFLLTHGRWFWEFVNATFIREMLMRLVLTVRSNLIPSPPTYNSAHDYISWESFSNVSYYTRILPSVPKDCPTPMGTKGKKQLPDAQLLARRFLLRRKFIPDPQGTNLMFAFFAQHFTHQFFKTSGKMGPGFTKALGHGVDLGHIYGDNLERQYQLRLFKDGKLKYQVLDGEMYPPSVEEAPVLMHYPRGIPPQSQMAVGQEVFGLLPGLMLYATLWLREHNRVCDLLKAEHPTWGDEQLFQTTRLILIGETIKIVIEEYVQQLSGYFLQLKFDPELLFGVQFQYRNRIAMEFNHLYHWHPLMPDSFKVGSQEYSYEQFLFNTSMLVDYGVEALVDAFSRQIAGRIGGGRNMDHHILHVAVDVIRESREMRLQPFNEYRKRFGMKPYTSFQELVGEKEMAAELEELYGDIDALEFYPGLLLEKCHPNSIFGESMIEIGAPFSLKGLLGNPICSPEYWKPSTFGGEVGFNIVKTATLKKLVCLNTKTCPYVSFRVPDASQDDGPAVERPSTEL
Test [3] can be described thus: Selectivity index, ratio of IC50 for COX1 to IC50 COX2.

For the compound `CS(=O)(=O)c1ccc(-n2nncc2-c2ccc(Cl)cc2)cc1`, the IC50 (in general, the concentration at which inhibition is half-maximal) was 0.04 µM in test [1] and 0.7 µM in test [2]. In addition, the Ratio IC50 in test [3] worked out at 17.5.
For the compound `CN(C)c1ccc(-c2cn(-c3ccc(S(C)(=O)=O)cc3)nn2)cc1`, the IC50 is greater than 10 µM in test [1] and greater than 100 µM in test [2].
Turning to `CS(=O)(=O)c1ccc(-n2cc(-c3ccccc3)nn2)cc1`, the figures for the IC50 in test [1] and in test [2] were 0.15 µM and 20.8 µM, respectively. For the same compound, in test [3], the Ratio IC50 stood at 139.
For `CS(=O)(=O)c1ccc(-n2cc(-c3ccc(Cl)cc3)nn2)cc1`, the IC50 in test [1] was determined as 0.19 µM; in test [2], 12.2 µM. For the same compound, in test [3], the Ratio IC50 worked out at 64.
Regarding `Cc1ccc(-c2cnnn2-c2ccc(S(C)(=O)=O)cc2)cc1`, the figures for the IC50 in test [1] and in test [2] were 0.12 µM and 0.78 µM, respectively. The Ratio IC50 in test [3] worked out at 6.5.
On to `COc1ccc(-c2cnnn2-c2ccc(S(C)(=O)=O)cc2)cc1`, for which the 50% inhibitory concentration (IC50) in test [1] came to 0.17 µM; in test [2], 0.83 µM. Also, the Ratio IC50 in test [3] came to 4.9.
On to `COc1ccc(-c2cn(-c3ccc(S(C)(=O)=O)cc3)nn2)cc1`, for which the IC50 in test [1] came to 2.5 µM; in test [2], 10 µM. Moreover, in test [3], the Ratio IC50 was found to be 4.
`CS(=O)(=O)c1ccc(-n2nncc2-c2ccccc2)cc1`: the IC50 in test [1] is 0.11 µM; in test [2], 0.81 µM. Further, the Ratio IC50 in test [3] was 7.5.
`CN(C)c1ccc(-c2cnnn2-c2ccc(S(C)(=O)=O)cc2)cc1`: the IC50 is 0.36 µM in test [1] and 0.84 µM in test [2]. Also, in test [3], the Ratio IC50 was 2.3.
In the case of `COc1ccc(C2=C(c3ccc(S(C)(=O)=O)cc3)CCC2)cc1`, the IC50 in test [2] came out at 5 µM.
`CS(=O)(=O)c1ccc(-n2cc(-c3ccc(F)cc3)nn2)cc1`: the IC50 in test [1] is 0.21 µM; in test [2], 12.5 µM. The Ratio IC50 in test [3] was 59.
Take `Cc1ccc(-c2cn(-c3ccc(S(C)(=O)=O)cc3)nn2)cc1`: the IC50 in test [1] stood at 2.5 µM; in test [2], 45 µM. In addition, in test [3], the Ratio IC50 worked out at 18.
With `CS(=O)(=O)c1ccc(-n2nncc2-c2ccc(F)cc2)cc1`, the IC50 in test [1] is 0.03 µM; in test [2], 0.91 µM. Also, the Ratio IC50 in test [3] came to 30.3.

The record behind these values is ChEMBL document CHEMBL1143392, “Synthesis and cyclooxygenase inhibition of various (aryl-1,2,3-triazole-1-yl)-methanesulfonylphenyl derivatives” (Bioorg Med Chem, 2009).
